According to patent US20240245639A1, “Dermal Application of Retinoic Acid Receptor Agonists for Amelioration of Hypertrophic Scar” (Northwestern University, priority 2023, published 2024):

System: primary human foreskin fibroblasts
Assay: RNA-seq expression profiling of Ch55 effects
Assay type: cell-based
Conditions: 1,000 nM Ch55, 24 hours
Text: We then used goseq (Young et al., 2010) to query the KEGG database with the […] signature and the TGF-β-antagonizing signature. Extraction of KEGG annotations and associated pathways enriched in the […] signature (FIG. 3D) tended to refer to either general categories (e.g. “proteasome,” “cell cycle,” “phagosome”) or categories relevant to other specific cell types (e.g. “Epithelial cell signaling in H. pylori infection,” “Collecting duct acid secretion,” “Axon guidance”). […] We next computed normalized gene expression values for the DEGs extracted from the TGF-β-antagonizing signature and overlaid Ch55-induced relative expression effects on potentially fibrosis-relevant pathways of interest using Pathview Web (Luo et al., 2017).
Purified RNA harvested from primary cultured human foreskin fibroblasts pooled from three donors underwent TruSeq stranded mRNA-seq library preparation at the Northwestern University NUSeq core facility, followed by paired-end sequencing on an Illumina HiSeq 4000. Raw FASTQ files were imported into Galaxy (Jalili et al., 2020). Reads were trimmed using Trimmomatic (Bolger et al., 2014) utilizing default parameters, prior to aligning to the human genome (hg38 construction) using HISAT2 (Kim et al., 2019). Reads were assigned to genomic features using featureCounts (Liao et al., 2014), and differential expression among groups was determined, and principal component analysis constructed, using DESeq2 (Love et al., 2014) with multiple comparison adjustment performed by the Benjamini-Hochberg correction (Benjamini and Hochberg, 1995). Differentially-expressed genes were defined as false discovery rate-adjusted (FDR) P<0.05. Pathway analysis on KEGG databases (Kanehisa and Goto, 2000) were performed using goseq (Young et al., 2010) and Pathview Web (Luo et al., 2017). Z-scores were calculated from normalized count values and used to construct heatmaps. FPKM values were estimated using Stringtie (Pertea et al., 2015). Raw RNA-sequence data are available through the National Center for Biotechnology Information Sequence Read Archive accession number PRJNA921850, the contents of which is incorporated by reference in its entirety.

CC(C)(C)c1cc(C(=O)/C=C/c2ccc(C(=O)O)cc2)cc(C(C)(C)C)c1 [Ch55]
genes known to be targets or regulators of retinoic acid signaling (RNA-seq): broad upregulation | myofibroblast marker genes (RNA-seq): significantly downregulated | LRRC15+/Lrrc15+ signature-enriched genes significantly downregulated (number of genes) (RNA-seq): 67/117 | LRRC15+/Lrrc15+ signature-enriched genes significantly downregulated (share of genes) (RNA-seq): ~57%
